Laboratory results from US8772499B2, “TRPV3 modulators” (AbbVie Inc., priority 2011, dated 2014).
Where two headings read alike, the source gives them in different places.

Experiments:
human TRPV3 = biological target: T1, human TRPV3 (Homo sapiens, UniProt Q8NET8); assay: In vitro antagonism of recombinant human TRPV3 activation (FLIPR Tetra calcium assay); assay type: cell-based; conditions: HEK293 cells stably expressing human TRPV3, agonist 2-APB at 80 μM
T1 construct: expressed in transfected cells
T1 sequence (Q8NET8 1-790): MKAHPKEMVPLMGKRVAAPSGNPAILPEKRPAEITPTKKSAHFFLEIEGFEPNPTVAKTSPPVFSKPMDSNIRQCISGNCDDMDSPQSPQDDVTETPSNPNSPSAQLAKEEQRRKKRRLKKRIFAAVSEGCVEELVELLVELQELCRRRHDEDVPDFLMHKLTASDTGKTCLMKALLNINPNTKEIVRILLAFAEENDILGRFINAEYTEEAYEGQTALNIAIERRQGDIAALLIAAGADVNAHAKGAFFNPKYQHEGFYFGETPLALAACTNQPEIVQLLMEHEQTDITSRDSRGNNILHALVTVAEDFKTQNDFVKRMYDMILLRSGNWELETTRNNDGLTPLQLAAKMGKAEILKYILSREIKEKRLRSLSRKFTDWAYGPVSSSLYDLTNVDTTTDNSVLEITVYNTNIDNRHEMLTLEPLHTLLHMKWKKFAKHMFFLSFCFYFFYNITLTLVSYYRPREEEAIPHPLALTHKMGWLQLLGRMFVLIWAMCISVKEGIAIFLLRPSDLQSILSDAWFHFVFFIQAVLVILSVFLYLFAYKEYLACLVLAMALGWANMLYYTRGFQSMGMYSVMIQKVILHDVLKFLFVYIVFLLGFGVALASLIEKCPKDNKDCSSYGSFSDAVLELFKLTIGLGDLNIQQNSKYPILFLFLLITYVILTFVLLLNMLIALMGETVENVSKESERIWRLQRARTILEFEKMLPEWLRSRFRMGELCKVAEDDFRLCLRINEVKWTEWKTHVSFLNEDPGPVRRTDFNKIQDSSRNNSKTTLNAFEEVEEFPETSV
Protocol: Test compounds were evaluated for ability to antagonize the activation of recombinant human TRPV3 using FLIPR® Tetra cellular screening. Specifically, on the day prior to the experiment recombinant HEK293 cells that stably express human TRPV3 were removed from tissue culture flasks and plated in growth medium at 20,000 cells/well into Poly-d-lysine coated black/clear 384-well Plate (Corning, 3845) using a Multidrop® dispenser (ThermoScientific, Waltham, Mass.). Prior to the start of the assay, the medium was removed by aspiration, and cells were loaded with 30 μL no-wash FLIPR® Calcium-4 dye (λEX=470-495 nm, λEM=515-575 nm; Molecular Devices, Sunnyvale, Calif.). The cells were then incubated for 90-120 minutes in the dark prior to addition of the test compound.
A double-addition protocol was used. The test compound (i.e., the TRPV3 antagonist) was added at the 10 second time point, followed by the addition of a TRPV3 agonist three minutes later. Each test compound evaluated was first dissolved in DMSO to prepare a 10 mM stock solution. A solution (5×) of the test compound was then prepared in DPBS (Dulbecco's Phosphate Buffered Saline) and 10 μl, of that solution was added to the cells at a delivery rate of 40 μL/sec. The TRPV3 agonist used to activate human TRPV3 expressed by the […] was 2-aminoethoxy-diphenyl borate (2-APB; Tocris Cookson, Ellisville, Mo.) at 80 μM. Final assay volume was 50 μl, Total length of an experimental run was 10 minutes.
Changes in fluorescence were measured over time using the FLIPR® instrument. The intensity of the fluorescence was captured and digitally transferred to an interfaced computer. The maximum response minus minimum response was calculated and expressed as the percentage of the maximum 2-APB response in the absence of antagonist. The concentration of 2-APB corresponds to its EC80.
Table 1 reports the IC50 values measured for the test compounds as human TRPV3 antagonists. […] Actual measured values are shown parenthetically after the reported range. In most cases, the values reported are average values from at least two runs (i.e., n≧2).

[1] = In vitro human microsomal stability assay; assay type: in vitro ADME; conditions: human, microsomes, 0.5 h, 0.5 μM, pH 7.4
Protocol: (§1) Test compounds were evaluated for metabolic stability in an in vitro rat microsomal stability assay using rat liver microsomes (Sprague-Dawley, from BD Biosciences) and/or an in vitro human microsomal stability assay using human liver microsomes (Xenotech). […] Incubations were carried out at 37° C. with a final incubation volume of 135 μL. […] A 1.5 μL aliquot of reduced nicotine adenine disphosphonucleotide (NADPH) (Chem-Impex Int'L Inc., Lot 12532024) was also added to the time-zero plates.

[2] = In vitro rat microsomal stability assay; assay type: in vitro ADME, rat (Sprague-Dawley); conditions: Sprague-Dawley, rat, microsomes, 0.5 h, 0.5 μM, pH 7.4
Protocol: as §1

[3] = actual measured value shown parenthetically, in most cases average of at least two runs, read-out: IC50
[4] = reported range, read-out: IC50 (range class)

IC50 (human TRPV3; [3]) [nM]	HUMAN MICROSOMAL STABILITY (% REMAINING AFTER 30 MINUTES) [1] [%]	RAT MICROSOMAL STABILITY (% REMAINING AFTER 30 MINUTES) [2] [%]	IC50 (human TRPV3; [4]) [nM]	SMILES
370	38	7.0	–	OC(c1ccccn1)C1(c2ccc(C(F)(F)F)cc2)CCCO1 (single isomer, unassigned) [Example 88, (anti)-pyridin-2-yl{2-[4-(trifluoromethyl)phenyl]tetrahydrofuran-2-yl}methanol]
2000	70	4.3	–	OC(c1ccccn1)C1(c2ccc(C(F)(F)F)cc2)CCCO1 (single isomer, unassigned) [Example 89, (syn)-pyridin-2-yl{2-[4-(trifluoromethyl)phenyl]tetrahydrofuran-2-yl}methanol]
100	2.7	0.23	–	OC(c1ccccn1)C1(c2cccc(OC(F)(F)F)c2)CCCO1 (single isomer, unassigned) [Example 92, (anti)-pyridin-2-yl{2-[3-(trifluoromethoxy)phenyl]tetrahydrofuran-2-yl}methanol]
590	12	0.33	–	OC(c1ccccn1)C1(c2cccc(OC(F)(F)F)c2)CCCO1 (single isomer, unassigned) [Example 93, (syn)-pyridin-2-yl{2-[3-(trifluoromethoxy)phenyl]tetrahydrofuran-2-yl}methanol]
360	55	3.8	–	OC(c1ccccn1)C1(c2ccc(OC(F)(F)F)cc2)CCCO1 (single isomer, unassigned) [Example 94, (anti)-pyridin-2-yl{2-[4-(trifluoromethoxy)phenyl]tetrahydrofuran-2-yl}methanol]
1850	57	0.61	–	OC(c1ccccn1)C1(c2ccc(OC(F)(F)F)cc2)CCCO1 (single isomer, unassigned) [Example 95, (syn)-pyridin-2-yl{2-[4-(trifluoromethoxy)phenyl]tetrahydrofuran-2-yl}methanol]
1220	0.68	0.15	–	OC(c1ccccn1)C1(c2ccccc2OC(F)(F)F)CCCO1 (single isomer, unassigned) [Example 96, (anti)-pyridin-2-yl{2-[2-(trifluoromethoxy)phenyl]tetrahydrofuran-2-yl}-methanol]
300	6.4	0.16	–	OC(c1ccccn1)C1(c2ccccc2OC(F)(F)F)CCCO1 (single isomer, unassigned) [Example 97, (syn)-pyridin-2-yl{2-[2-(trifluoromethoxy)phenyl]tetrahydrofuran-2-yl}-methanol]
110	7.6	0.020	–	OC(c1ccccn1)C1(c2ccc(Cl)c(Cl)c2)CCCO1 (single isomer, unassigned) [Example 98]
1240	30	0.17	–	OC(c1ccccn1)C1(c2ccc(Cl)c(Cl)c2)CCCO1 (single isomer, unassigned) [Example 99, (syn)-[2-(3,4-dichlorophenyl)tetrahydrofuran-2-yl](pyridin-2-yl)methanol]
830	26	2.9	–	OC(c1ccccn1)C1(c2cccc(F)c2)CCCO1 (single isomer, unassigned) [Example 100, (anti)-[2-(3-fluorophenyl)tetrahydrofuran-2-yl](pyridin-2-yl)methanol]
> 20000	40	0.17	> 20000	OC(c1ccccn1)C1(c2cccc(F)c2)CCCO1 (single isomer, unassigned) [Example 101, (syn)-[2-(3-fluorophenyl)tetrahydrofuran-2-yl](pyridin-2-yl)methanol]
280	15	0.42	–	OC(c1ccccn1)C1(c2cccc(Cl)c2)CCCO1 (single isomer, unassigned) [Example 104, (anti)-[2-(3-chlorophenyl)tetrahydrofuran-2-yl](pyridin-2-yl)methanol]
7570	42	0.040	–	OC(c1ccccn1)C1(c2cccc(Cl)c2)CCCO1 (single isomer, unassigned) [Example 105, (syn)-[2-(3-chlorophenyl)tetrahydrofuran-2-yl](pyridin-2-yl)methanol]
210	3.9	1.6	–	OC(c1ccccn1)C1(c2cccc(C(F)(F)F)c2)CCCO1 (single isomer, unassigned) [Example 106, (anti)-pyridin-2-yl{2-[3-(trifluoromethyl)phenyl]tetrahydrofuran-2-yl}-methanol]
2930	31	0.23	–	OC(c1ccccn1)C1(c2cccc(C(F)(F)F)c2)CCCO1 (single isomer, unassigned) [Example 107, (syn)-pyridin-2-yl{2-[3-(trifluoromethyl)phenyl]tetrahydrofuran-2-yl}-methanol]
610	13	4.9	–	OC(c1ccccn1)C1(c2ccc(F)c(F)c2)CCCO1 (single isomer, unassigned) [Example 108, (anti)-[2-(3,4-difluorophenyl)tetrahydrofuran-2-yl](pyridin-2-yl)methanol]
5810	45	0.74	–	OC(c1ccccn1)C1(c2ccc(F)c(F)c2)CCCO1 (single isomer, unassigned) [Example 109, (syn)-[2-(3,4-difluorophenyl)tetrahydrofuran-2-yl](pyridin-2-yl)methanol]
820	>85	50	1100 to 5000	OC1CC(c2ccc(OC(F)(F)F)cc2)(C(O)c2ccccn2)C1 (single isomer, unassigned) [Example 131]
9330	81	72	–	OC1CC(c2ccc(OC(F)(F)F)cc2)(C(O)c2ccccn2)C1 (single isomer, unassigned) [Example 132]
